From patent publication US6762170B1, “2-(purin-9-yl)-tetrahydrofuran-3,4-diol derivatives” (SmithKlineBeecham Corporation, priority 1998, dated 2004)

Assays:
Format in all cases: cell-based
Adenosine 2a receptor = biological target: T1, Adenosine 2a receptor (Homo sapiens, UniProt P29274); assay: Agonist activity against adenosine 2a receptor subtype (CHO cells, cAMP response element/SPAP reporter); settings: EC50 ratio to NECA; transfected CHO cells, basal cAMP reflected by SPAP
T1 construct: expressed in transfected cells; host or cells: Chinese hamster ovary (CHO) cells, co-transfected with a CRE-SPAP reporter
T1 sequence (P29274 whole entry): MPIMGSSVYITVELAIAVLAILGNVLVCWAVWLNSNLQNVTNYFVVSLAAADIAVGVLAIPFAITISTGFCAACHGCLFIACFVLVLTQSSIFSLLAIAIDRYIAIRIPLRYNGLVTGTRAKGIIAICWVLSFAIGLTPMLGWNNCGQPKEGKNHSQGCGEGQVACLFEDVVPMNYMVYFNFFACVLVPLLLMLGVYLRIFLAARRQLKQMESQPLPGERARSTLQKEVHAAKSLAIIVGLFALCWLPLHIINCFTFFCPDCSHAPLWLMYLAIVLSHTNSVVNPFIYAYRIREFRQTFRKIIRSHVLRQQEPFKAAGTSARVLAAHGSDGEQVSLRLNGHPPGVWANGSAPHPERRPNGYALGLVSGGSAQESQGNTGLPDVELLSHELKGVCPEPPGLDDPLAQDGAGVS
Procedure, shortened: (§1)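 CHO cells expressed the human receptor plus a cAMP response element–driven SPAP reporter. Agonism was measured as SPAP change from forskolin-enhanced cAMP for A1 and A3, and from basal cAMP for A2a. EC50 is expressed as a ratio to that of NECA.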

Adenosine 1 receptor = biological target: T2, Adenosine 1 receptor (Homo sapiens, UniProt P30542); assay: Agonist activity against adenosine 1 receptor subtype (CHO cells, forskolin-enhanced cAMP, SPAP reporter); settings: EC50 ratio to NECA; transfected CHO cells, forskolin-enhanced cAMP reflected by SPAP
T2 construct: expressed in transfected cells; host or cells: Chinese hamster ovary (CHO) cells, co-transfected with a CRE-SPAP reporter
T2 sequence (P30542 1-326): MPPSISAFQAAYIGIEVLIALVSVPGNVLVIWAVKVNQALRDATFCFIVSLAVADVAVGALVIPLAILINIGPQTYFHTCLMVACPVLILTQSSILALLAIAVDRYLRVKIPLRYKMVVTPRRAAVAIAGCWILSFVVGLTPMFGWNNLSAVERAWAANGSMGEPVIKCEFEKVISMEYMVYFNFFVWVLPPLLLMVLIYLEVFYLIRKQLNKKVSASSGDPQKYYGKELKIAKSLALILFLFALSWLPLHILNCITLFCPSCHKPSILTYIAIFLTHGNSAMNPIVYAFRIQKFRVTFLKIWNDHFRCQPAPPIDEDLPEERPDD
Procedure, shortened: as §1

Adenosine 3 receptor = biological target: T3, Adenosine 3 receptor (Homo sapiens, UniProt P0DMS8); assay: Agonist activity against adenosine 3 receptor subtype (CHO cells, forskolin-enhanced cAMP, SPAP reporter); settings: EC50 ratio to NECA; transfected CHO cells, forskolin-enhanced cAMP reflected by SPAP
T3 construct: expressed in transfected cells; host or cells: Chinese hamster ovary (CHO) cells, co-transfected with a CRE-SPAP reporter
T3 sequence (P0DMS8 1-318): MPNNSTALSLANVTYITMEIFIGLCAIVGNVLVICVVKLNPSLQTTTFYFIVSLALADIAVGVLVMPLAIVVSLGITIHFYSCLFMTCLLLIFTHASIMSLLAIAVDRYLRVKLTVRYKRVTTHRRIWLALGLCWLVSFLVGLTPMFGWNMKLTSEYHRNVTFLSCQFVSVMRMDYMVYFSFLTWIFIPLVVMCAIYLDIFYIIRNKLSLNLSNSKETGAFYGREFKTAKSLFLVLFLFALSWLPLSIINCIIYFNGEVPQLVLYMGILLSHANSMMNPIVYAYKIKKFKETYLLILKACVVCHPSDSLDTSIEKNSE
Procedure, shortened: as §1

CCOC(=O)c1cc(C2OC(n3cnc4c(NC(CC)CC)nc(NCCc5cn(C)cn5)nc43)C(O)C2O)on1 (stereo not drawn) [Example 68, 5-(5R-{6-(1-Ethyl-propylamino)-2-[2-(1-methyl-1H-imidazol-4-yl)-ethylamino]-purin-9-yl}-3S,4R-dihydroxy-tetrahydro-furan-2S-yl)-isoxazole-3-carboxylic acid ethyl ester diformate]
A2a (EC50 values as a ratio of that of NECA) (Adenosine 2a receptor): 30.23
A1 (EC50 values as a ratio of that of NECA) (Adenosine 1 receptor): 60.30
A3 (EC50 values as a ratio of that of NECA) (Adenosine 3 receptor): >113

CCc1cc(C2OC(n3cnc4c(NC(CO)C(C)C)nc(NCCN5CCCC5)nc43)C(O)C2O)on1 [Example 69, (2S,3S,4R,5R)-2-(3-Ethyl-isoxazol-5-yl)-5-[6-(1S-hydroxymethyl-2-methyl-propylamino)-2-(2-pyrrolidin-1-yl-ethylamino)-purin-9-yl]-tetrahydro-furan-3,4-diol diformate]
A2a (EC50 values as a ratio of that of NECA) (Adenosine 2a receptor): 23.73
A1 (EC50 values as a ratio of that of NECA) (Adenosine 1 receptor): 298.75
A3 (EC50 values as a ratio of that of NECA) (Adenosine 3 receptor): >180

CCc1cc(C2OC(n3cnc4c(NC(CO)C(C)C)nc(NCCN5CCCCC5)nc43)C(O)C2O)on1 [Example 70, (2S,3S,4R,5R)-2-(3-Ethyl-isoxazol-5-yl)-5-[6-(1(1S-hydroxymethyl-2-methyl-propylamino)-2-(2-piperidin-1-yl-ethylamino)-purin-9-yl]-tetrahydro-furan-3,4-diol diformate]
A2a (EC50 values as a ratio of that of NECA) (Adenosine 2a receptor): 27.39
A1 (EC50 values as a ratio of that of NECA) (Adenosine 1 receptor): 149.86
A3 (EC50 values as a ratio of that of NECA) (Adenosine 3 receptor): >184

CCc1cc(C2OC(n3cnc4c(NC(CO)C(C)C)nc(NCCNc5ccccn5)nc43)C(O)C2O)on1 [Example 71, (2S,3S,4R,5R)-2-(3-Ethyl-isoxazol-5-yl)-5-{6-(1S-hydroxymethyl-2-methyl-propylamino)-2-[2-(pyridin-2-ylamino)-ethylamino]-purin-9-yl}-tetrahydro-furan-3,4-diol diformate]
A2a (EC50 values as a ratio of that of NECA) (Adenosine 2a receptor): 12.75
A1 (EC50 values as a ratio of that of NECA) (Adenosine 1 receptor): 79.51
A3 (EC50 values as a ratio of that of NECA) (Adenosine 3 receptor): >184

CCc1cc(C2OC(n3cnc4c(NC(CO)C(C)C)nc(NC(CO)Cc5ccccc5)nc43)C(O)C2O)on1 [Example 72, (2S,3S,4R,5R)-2-(3-Ethyl-isoxazol-5-yl)-5-{6-(1S-hydroxymethyl-2-methyl-propylamino)-2-(1S-hydroxymethyl-2-phenyl-ethylamino)-purin-9-yl}-tetrahydro-furan-3,4-diol diformate]
A2a (EC50 values as a ratio of that of NECA) (Adenosine 2a receptor): 5.39
A1 (EC50 values as a ratio of that of NECA) (Adenosine 1 receptor): 23.79
A3 (EC50 values as a ratio of that of NECA) (Adenosine 3 receptor): >158

(2R,3R,4S,5S)-2-[2-Ethylamino-6-(3-iodo-benzylamino)-purin-9-yl]-5-(3-ethyl-isoxazol-5-yl)-tetrahydro-furan-3,4-diol formate [Example 66]
A2a (EC50 values as a ratio of that of NECA) (Adenosine 2a receptor): 8.32
A1 (EC50 values as a ratio of that of NECA) (Adenosine 1 receptor): 189.98
A3 (EC50 values as a ratio of that of NECA) (Adenosine 3 receptor): >262

(2R,3R,4S,5S)-2-{6-(1-Ethyl-propylamino)-2-[2-(1-methyl-1H-imidazol-4-yl)-ethylamino]-purin-9-yl}-5-(3-propyl-isoxazol-5-yl)-tetrahydro-furan-3,4-diol diformate [Example 60]
A2a (EC50 values as a ratio of that of NECA) (Adenosine 2a receptor): 4.53
A1 (EC50 values as a ratio of that of NECA) (Adenosine 1 receptor): 155.86
A3 (EC50 values as a ratio of that of NECA) (Adenosine 3 receptor): ≧248.4

(2R,3R,4S,5S)-2-{6-(1-Ethyl-propylamino)-2-[2-(1-methyl-1H-imidazol-4-yl)-ethylamino]-purin-9yl}-5-(3-methyl-isoxazol-5-yl)-tetrahydro-furan-3,4-diol diformate [Example 59]
A2a (EC50 values as a ratio of that of NECA) (Adenosine 2a receptor): 0.13
A1 (EC50 values as a ratio of that of NECA) (Adenosine 1 receptor): 194.3
A3 (EC50 values as a ratio of that of NECA) (Adenosine 3 receptor): >385

(2S,3S,4R,5R)-2-(3-Ethyl-isoxazol-5yl)-5-[6-(3-iodo-benzylamino)-2-(2-piperidin-1-yl-ethylamino)-purin-9-yl]-tetrahydro-furan-3,4-diol diformate [Example 65]
A2a (EC50 values as a ratio of that of NECA) (Adenosine 2a receptor): 4.74
A1 (EC50 values as a ratio of that of NECA) (Adenosine 1 receptor): 128.27
A3 (EC50 values as a ratio of that of NECA) (Adenosine 3 receptor): >262
